From PMC5865651, “Novel inhibitor candidates of TRPV2 prevent damage of dystrophic myocytes and ameliorate against dilated cardiomyopathy in a hamster model” (Oncotarget, 2018)

Assays:
TRPV2 [1] = system: TRPV2; parameters: method as in PMID 17673572; conditions: cited from earlier work
mouse TRPV2 (mTRPV2) = target: T1, mouse TRPV2 (mTRPV2) (Mus musculus, UniProt Q9WTR1); test: 2-APB-induced increase in [Ca2+]i in HEK293 cells expressing mTRPV2 (fura-2, microplate reader / imaging); format: cell-based; conditions: for IC50 / inhibition of the 2-APB-induced increase in [Ca2+]i: HEK293 cells expressing mTRPV2, 2-APB 0.3 mM, CaCl2 5 mM, pH 6.5; for IC50: read-out: IC50 for the 2-APB-induced increase in [Ca2+]i (Ca2+ response); for Ca2+ responses elicited by TRPV2 agonists (initial assessment): cell-based assay, before optimisation of conditions; for inhibition of the 2-APB-induced increase in [Ca2+]i: concentrations up to 100 μM
T1 construct: expressed in transfected cells
T1 sequence (Q9WTR1 1-756): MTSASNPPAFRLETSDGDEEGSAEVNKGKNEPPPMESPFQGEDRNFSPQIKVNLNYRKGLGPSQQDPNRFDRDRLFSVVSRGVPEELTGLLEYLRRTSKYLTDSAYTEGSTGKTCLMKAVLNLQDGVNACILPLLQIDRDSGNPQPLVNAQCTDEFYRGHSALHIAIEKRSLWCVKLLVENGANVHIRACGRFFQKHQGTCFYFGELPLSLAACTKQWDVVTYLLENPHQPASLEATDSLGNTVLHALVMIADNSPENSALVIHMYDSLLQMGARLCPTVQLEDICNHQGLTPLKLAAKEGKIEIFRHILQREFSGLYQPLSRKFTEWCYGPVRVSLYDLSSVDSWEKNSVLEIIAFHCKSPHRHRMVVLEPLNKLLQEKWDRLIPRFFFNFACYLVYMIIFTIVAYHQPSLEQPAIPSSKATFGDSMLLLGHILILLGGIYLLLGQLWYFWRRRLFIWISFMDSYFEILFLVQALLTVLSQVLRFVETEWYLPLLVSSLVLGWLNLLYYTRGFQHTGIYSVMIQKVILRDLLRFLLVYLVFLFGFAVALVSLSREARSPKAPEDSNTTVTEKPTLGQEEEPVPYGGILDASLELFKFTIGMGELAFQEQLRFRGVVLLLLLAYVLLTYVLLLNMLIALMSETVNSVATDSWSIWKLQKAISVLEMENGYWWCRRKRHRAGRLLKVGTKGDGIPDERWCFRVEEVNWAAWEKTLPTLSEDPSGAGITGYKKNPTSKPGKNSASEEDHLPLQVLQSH
Description: HEK293 cells expressing mouse TRPV2 (mTRPV2) and non-transfected HEK293 cells were loaded with fura-2-AM and placed in low CaCl2 medium (0.5 mM).
For the drug screening, we designed a method involving measurement of the Ca^2+ response using a 96-well high-throughput plate-reader. Cells were placed in low CaCl2 (0.5 mM) medium, which was replaced with high CaCl2 medium (5 mM) with or without the TRPV agonist 2-APB and adjusted to various pH values.
(§1) [Ca^2+]i was measured by a ratiometric fluorescence method as previously described. Briefly, HEK293 cells were loaded with 4 μM fura-2-AM for 30 min at 37° C and maintained in balanced salt solution (BSS) (146 mM NaCl, 4 mM KCl, 2 mM MgCl2, 0.5 mM CaCl2, 10 mM glucose, 0.1% bovine serum albumin, and 10 mM HEPES/Tris, pH 7.4). Fura-2-AM fluorescence was measured using an Aquacosmos fluorescence image processor (Hamamatsu Photonics, Hamamatsu, Japan). The time-course data are presented as the ratio of fluorescence at an excitation wavelength of 340 nm to that at 380 nm. The increase in the fluorescence ratio induced by the TRPV2 agonist 2-APB or high extracellular Ca^2+ (ΔR) was normalized to the initial ratio (R0) before stimulation. The fluorescence relative ratio (ΔR/R0) was plotted as the summary data in the fluorescence imaging analysis.
For screening, cells were plated in 96-well plates and the fura-2-AM fluorescence ratio at excitation wavelengths of 340 nm and 380 nm was monitored using a GENios Pro microplate reader (Tecan, Research Triangle Park, NC, USA) or POLARstar Omega (BMG Labtech, Germany). Cells were stimulated in BSS containing 5 mM CaCl2. […] All Ca^2+ measurements were carried out at room temperature. […] For simplicity, the results are presented as normalized values (% maximum) from the microplate reader experiment.

hTRPC1 = target: T2, hTRPC1 (Homo sapiens, UniProt P48995); test: Store-operated Ca2+ entry after thapsigargin in hTRPC1-transfected HEK293 cells; format: cell-based; conditions: hTRPC1-transfected HEK293 cells; thapsigargin; compound 100 μM
T2 construct: expressed in transfected cells; host or cells: HEK293 cells
T2 sequence (P48995 whole entry): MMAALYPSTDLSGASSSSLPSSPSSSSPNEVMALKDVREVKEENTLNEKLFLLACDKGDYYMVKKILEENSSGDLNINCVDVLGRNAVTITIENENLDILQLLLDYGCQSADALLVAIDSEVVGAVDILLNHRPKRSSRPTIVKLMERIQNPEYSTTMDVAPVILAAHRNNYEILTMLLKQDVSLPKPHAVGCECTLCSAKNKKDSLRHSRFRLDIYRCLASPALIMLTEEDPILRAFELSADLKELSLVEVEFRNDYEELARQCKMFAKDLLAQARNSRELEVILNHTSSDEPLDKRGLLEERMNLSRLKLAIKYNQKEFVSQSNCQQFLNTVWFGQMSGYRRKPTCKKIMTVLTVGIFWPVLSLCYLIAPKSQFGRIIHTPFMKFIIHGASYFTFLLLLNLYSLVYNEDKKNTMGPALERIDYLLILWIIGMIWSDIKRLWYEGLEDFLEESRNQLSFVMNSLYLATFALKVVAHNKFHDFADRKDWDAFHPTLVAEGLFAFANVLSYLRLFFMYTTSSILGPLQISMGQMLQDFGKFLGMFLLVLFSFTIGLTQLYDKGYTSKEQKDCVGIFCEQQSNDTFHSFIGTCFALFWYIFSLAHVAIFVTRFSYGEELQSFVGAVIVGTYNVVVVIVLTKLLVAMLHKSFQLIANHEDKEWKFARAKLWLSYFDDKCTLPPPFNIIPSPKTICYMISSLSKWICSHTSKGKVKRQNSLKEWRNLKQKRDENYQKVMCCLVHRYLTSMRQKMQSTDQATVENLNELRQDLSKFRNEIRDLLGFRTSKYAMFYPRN
Description: Figure 4 Effects of inhibitor compounds on the Ca^2+ response of cells expressing hTRPV1, hTRPV2, or hTRPC1 (A) Effect of compounds on CaCl2 (5 mM)-induced peak fluorescence ratio in non-transfected (nt) or hTRPV2-transfected CHO cells. The extracellular Ca^2+-dependent increase in the ratio of fura-2 fluorescence intensity at 340/380 nm (ΔR, 2 min after addition of chemicals) was plotted as ΔR/R0 after normalising to the initial fluorescence ratio (R0). […] Solid bar, no inhibitor. (B) Effect of compounds on 2-APB (1 mM)/high extracellular CaCl2-induced peak fluorescence ratio in nt or hTRPV1-transfected HEK293 cells. […] (C) Effect of compounds on store-operated Ca^2+ entry in nt or hTRPC1-transfected HEK293 cells. Cells were treated with the endoplasmic reticulum Ca^2+ pump inhibitor thapsigargin and exposed to CaCl2 and the indicated compounds. ΔR was measured 2 min after the addition of CaCl2. […] Data are shown as mean ± SD (n = 5).
as §1, with “Briefly, HEK293 cells were loaded with 4 μM fura-2-AM for 30 min at 37° C and maintained in balanced salt solution (BSS) (146 mM NaCl, 4 mM KCl, 2 mM MgCl2, 0.5 mM CaCl2, 10 mM glucose, 0.1% bovine serum albumin, and 10 mM HEPES/Tris, pH 7.4).” left out

TRPV2 [2] = system: TRPV2; parameters: method as in PMID 21147993; conditions: TRPV2-transfected HEK293 cells; cited from earlier work
J2N-k myocytes = test: Stretch-induced CK release from J2N-k myocytes; format: cell-based, hamster; conditions: 500 μM, 30 min pretreatment, cyclic stretch 20% elongation 1 h
Description: (§2) Creatine phosphokinase (CK) activity in the medium was determined using an in vitro colorimetric assay kit (CK Test Kit; Wako Pure Chemical Industries, Ltd., Osaka, Japan) according to the manufacturer's protocol The cTN-I level in the serum was measured, while quantitative immunoblotting and immunocytochemistry were performed as previously described. Protein concentration was measured using the bicinchoninic acid assay (Pierce Chemical Co., Rockford, IL, USA) with bovine serum albumin as the standard. All histochemical and physiological analyses were performed by investigators blinded to the drug treatments. Unless otherwise stated, results are presented as the mean ± SD of at least 5 determinations. The unpaired Student's t-test and one-way ANOVA followed by Dunnett's test were used to analyse the data. Values of P < 0.05 (indicated as asterisks in the figures) were considered statistically significant. All cellular measurements were repeated at least 5 times. Representative data are shown.

mTRPV2 channel = target: T3, mTRPV2 channel (Mus musculus, UniProt Q9WTR1); test: Whole-cell patch clamp of 2-APB-evoked mTRPV2 current in HEK293 cells; format: cell-based; conditions: tranilast 100 μM; 200 μM 2-APB; data not shown
T3 construct: expressed in transfected cells
T3 sequence (Q9WTR1 1-756): T1 sequence (Q9WTR1 1-756)
Description: The fluorescence ratio was measured by a microplate reader and normalized by the maximal value. Data are shown as mean ± SD (n = 5). […] The current values at −100 mV measured by an every-2-second ramp protocol were plotted. […] The current waveforms of the control cells and the cells 11 minutes after application of 15 μM lumin were superimposed. The L-type Ca^2+ channel currents were elicited by depolarizing pulses of 0 mV for 200 milliseconds from −80 mV.
TRPV2 currents were recorded under voltage-clamp conditions by the whole-cell patch-clamp technique. Patch pipettes (2–5 MΩ) were filled with an intracellular solution containing 110 mM K-aspartate, 30 mM KCl, 10 mM NaCl, 1 mM MgCl2, 10 mM BAPTA, 10 mM HEPES, and 3 mM MgATP (adjusted to pH 7.2 with KOH). The extracellular solution contained 145 mM NaCl, 5 mM KCl, 1.5 mM MgCl2, 1 mM EGTA, 10 mM HEPES, and 10 mM glucose (pH was adjusted to 6.5 with NaOH). Because TRPV2 was reported to desensitize in the presence of extracellular Ca^2+ [41], we used nominally Ca^2+-free medium containing 1 mM EGTA to prevent desensitization. In the experiments confirming the pH dependence of the response, the pH was adjusted to 7.4. In the whole-cell recordings, the membrane potential of the cell was held at −60 mV, while voltage ramps of 400 ms from −100 mV to +60 mV were applied every 2 seconds. Currents through the electrode were recorded at 5 kHz and filtered at 2 kHz by an Axopatch 200B amplifier (Molecular Devices, LLC, Sunnyvale, CA, USA). The junctional potential was −11.7 mV.

[3] = system: cardiomyopathic J2N-k hamsters; test: Cardiomyopathy in J2N-k hamsters in vivo (echocardiography, serum cTN-I, Masson's trichrome fibrosis); parameters: species or system hamster; conditions: 300 mg/kg/day mixed with feed, 3 weeks
Description: Male δ-SG-deficient cardiomyopathic J2N-k and age-matched wild-type J2N-n hamsters (9 weeks old) were purchased from Japan SLC, Inc. (Shizuoka, Japan). Tranilast was ingested mixed with feed (300 mg/kg/day) as described previously, whereas other drugs (Figure 1) were administered orally in the drinking water at doses of 30 mg/kg (except lumin) per day for 3 weeks. In case of lumin, we first performed dose-dependent experiment at dose of 1,10 and100 mg/kg per day for 3 weeks, in order to determine the effective dose. […] After drug treatment, serum cardiac troponin (cTN)-I was measured and echocardiography analysis was performed. Histochemistry of cardiac muscles was performed as previously described. All animal experiments were performed according to the Guidelines for Animal Experimentation of the National Cerebral and Cardiovascular Center Research Institute.
Ventricles were fixed in phosphate-buffered saline containing 10% formalin and embedded in paraffin. Serial sections were cut at a thickness of 5 μm and stained with Masson's trichrome stain for morphological analysis. Sections were viewed under a BX41 light microscope (Olympus, Tokyo, Japan). Images were acquired with an FX380 digital camera (Olympus) and analysed using an FLVFS-LS imaging system (Flovel, Tokyo, Japan).
Fibrosis was assessed by measuring Masson's trichrome-positive areas. Briefly, colour images were converted to binary form by setting the threshold value so as to detect only blue-stained fibrotic areas, which were summed and reported as a percentage of the total.
Cardiac function was evaluated by echocardiography using a Sonos5500 ultrasound system (Hewlett-Packard, Palo Alto, CA, USA) with a 12-MHz transducer and M-mode imaging. The animals were sedated with tribromoethanol (350 mg/kg by intraperitoneal injection) during the process.
as §2

SMILES: FC(F)(F)c1ccccc1-n1ccnc1 [1-(2-(trifluoromethyl)phenyl)imidazole]
- effective doses for inhibition of TRPV2 activation (TRPV2 [1]): 100 to 1000 µM

SMILES: Nc1ccncc1 [4-amino-pyridine]
- effective doses for inhibition of TRPV2 activation (TRPV2 [1]): 100 to 1000 µM

SMILES: COc1ccc(CCCOC(Cn2ccnc2)c2ccc(OC)cc2)cc1 (stereo not drawn) [SKF96365, 1-[β-[3-(4-methoxyphenyl)propoxy]-4-methoxyphenethyl]-1H-imidazole]
- IC50 (mouse TRPV2 (mTRPV2)): ≥ 10 µM
- effect on store-operated increase in [Ca2+]i (hTRPC1): strongly inhibited

SMILES: C=C(C)[C@@H]1CCC(C)=C[C@H]1c1c(O)cc(CCCCC)cc1O [cannabidiol]
- Ca2+ responses elicited by TRPV2 agonists (initial assessment) (mouse TRPV2 (mTRPV2)): too small

SMILES: CC(C)c1ccc(C(=O)NC(=N)N)cc1S(C)(=O)=O [cariporide]
- inhibition of the 2-APB-induced increase in [Ca2+]i (mouse TRPV2 (mTRPV2)): did not inhibit

SMILES: COc1ccc([C@@H]2Sc3ccccc3N(CCN(C)C)C(=O)[C@@H]2OC(C)=O)cc1 [diltiazem]
- inhibition of the 2-APB-induced increase in [Ca2+]i (mouse TRPV2 (mTRPV2)): did not inhibit

SMILES: CCCN(CCC)S(=O)(=O)c1ccc(C(=O)O)cc1 [probenecid]
- Ca2+ responses elicited by TRPV2 agonists (initial assessment) (mouse TRPV2 (mTRPV2)): too small

SMILES: [H]/N=C(/N)N[C@H]1[C@H](O)[C@@H](O)[C@H](O[C@@H]2O[C@@H](C)[C@](O)(C=O)[C@H]2O[C@@H]2O[C@@H](CO)[C@H](O)[C@@H](O)[C@@H]2NC)[C@@H](N/C(N)=N\[H])[C@@H]1O [streptomycin]
- inhibition of the 2-APB-induced increase in [Ca2+]i (mouse TRPV2 (mTRPV2)): did not inhibit

SMILES: CC[N+](CC)(CC)CC [tetraethylammonium]
- effective doses for inhibition of TRPV2 activation (TRPV2 [1]): 100 to 1000 µM

SMILES: COc1ccc(/C=C/C(=O)Nc2ccccc2C(=O)O)cc1OC [tranilast, N-[3,4-dimethoxycinnamonyl]-anthranilic acid]
- effect on pressure-induced inward current (TRPV2 [2]): blocked
- reduction of stretch-induced CK release (J2N-k myocytes): up to 70%
- IC50 (mouse TRPV2 (mTRPV2)): ≥ 10 µM
- effect on TRPV2 channel activity (mTRPV2 channel): did not inhibit
- effect on fibrosis (Masson's trichrome) [3]: prevented fibrosis
- effect on fractional shortening (FS) [3]: prevented
- effect on left ventricular end-diastolic dimension (LVDd) [3]: small effect
- effect on left ventricular end-systolic dimension (LVDs) [3]: prevented the increase
- effect on serum level of cTN-I [3]: reduced
